Measured values as given in patent publication US8906852B2 (MethylGene Inc., priority 2010, dated 2014).

Each molecule was assayed against T1, VEGFR/KDR (Homo sapiens, UniProt P35968) (assay: VEGFR/KDR kinase inhibition, DELFIA assay). Details: ATP 0.6 uM (2x Km), enzyme 5 nM.
T1 construct: made in house; host or cells: Sf9 cells (Spodoptera frugiperda), baculovirus
Assay type: biochemical
In short: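 DELFIA time-resolved fluorescence readout using Europium-tagged anti-phosphotyrosine antibody after EDTA stop. Kinase reaction on plate-bound poly(Glu4,Tyr) ran 10-30 min at 30° C with 5 nM enzyme and 0.6 uM ATP (2× Km), following 4 min on-ice pre-incubation with compound; IC50 over a concentration range.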

T1 sequence (P35968 806-1356): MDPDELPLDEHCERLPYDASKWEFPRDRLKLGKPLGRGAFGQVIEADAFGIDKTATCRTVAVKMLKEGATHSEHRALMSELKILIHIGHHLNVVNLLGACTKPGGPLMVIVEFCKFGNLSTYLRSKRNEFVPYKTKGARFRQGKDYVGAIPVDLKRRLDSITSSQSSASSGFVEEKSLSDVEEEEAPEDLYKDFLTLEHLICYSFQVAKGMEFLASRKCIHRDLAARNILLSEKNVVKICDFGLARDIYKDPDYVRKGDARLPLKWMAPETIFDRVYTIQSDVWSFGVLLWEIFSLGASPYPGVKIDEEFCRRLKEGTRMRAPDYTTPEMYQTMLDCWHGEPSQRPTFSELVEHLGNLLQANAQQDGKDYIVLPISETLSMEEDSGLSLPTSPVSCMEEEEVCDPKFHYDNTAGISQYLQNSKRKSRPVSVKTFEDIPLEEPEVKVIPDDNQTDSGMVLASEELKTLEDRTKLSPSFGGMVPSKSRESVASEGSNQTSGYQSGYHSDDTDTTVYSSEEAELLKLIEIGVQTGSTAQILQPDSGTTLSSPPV

| IC50 | Compound |
| --- | --- |
| < 0.05 µM | O=C(Nc1ccc(Oc2ccnc3cc(C(=O)N4CCC4)sc23)c(F)c1)NC1CC1 [Compound 446] |
| < 0.05 µM | O=C(Nc1ccc(Oc2ccnc3cc(C(=O)N4CC[C@@H](O)C4)sc23)c(F)c1)NC1CC1 [Compound 460, (R)-1-cyclopropyl-3-(3-fluoro-4-(2-(3-hydroxypyrrolidine-1-carbonyl)thieno[3,2-b]pyridin-7-yloxy)phenyl)urea] |
| < 0.05 µM | O=C(Nc1ccc(Oc2ccnc3cc(C(=O)N4CC[C@H](O)C4)sc23)c(F)c1)NC1CC1 [Compound 461, (S)-1-cyclopropyl-3-(3-fluoro-4-(2-(3-hydroxypyrrolidine-1-carbonyl)thieno[3,2-b]pyridin-7-yloxy)phenyl)urea] |
| < 0.05 µM | O=C(Nc1ccc(Oc2ccnc3cc(C(=O)N4CC(O)C4)sc23)c(F)c1)NC1CC1 [Compound 462] |
| 0.05 to 0.1 µM | O=C(Nc1ccc(Oc2ccnc3cc(C(=O)N4CCC(C(=O)O)CC4)sc23)c(F)c1)NC1CC1 [Compound 465, 1-(7-(4-(3-cyclopropylureido)-2-fluorophenoxy)thieno[3,2-b]pyridine-2-carbonyl)piperidine-4-carboxylic acid] |
| < 0.05 µM | O=C(Nc1ccc(Oc2ccnc3cc(C(=O)N4CCCC(C(=O)O)C4)sc23)c(F)c1)NC1CC1 (centres unmarked) [Compound 466, 1-(7-(4-(3-cyclopropylureido)-2-fluorophenoxy)thieno[3,2-b]pyridine-2-carbonyl)piperidine-3-carboxylic acid] |
| < 0.05 µM | CC(=O)OC1CN(C(=O)c2cc3nccc(Oc4ccc(NC(=O)NC5CC5)cc4F)c3s2)C1 [Compound 469, 1-(7-(4-(3-cyclopropylureido)-2-fluorophenoxy)thieno[3,2-b]pyridine-2-carbonyl)azetidin-3-yl acetate] |
| < 0.05 µM | CCOC(=O)C1CCCN(Cc2ccc(-c3cc4nccc(Oc5ccc(NC(=O)NC6CC6)cc5F)c4s3)nc2)C1 (centres unmarked) [Compound 475, ethyl 1-((6-(7-(4-(3-cyclopropylureido)-2-fluorophenoxy)thieno[3,2-b]pyridin-2-yl)pyridino-yl)methyl)piperidine-3-carboxylate] |
| < 0.05 µM | COC(=O)[C@@H]1CCCN1Cc1ccc(-c2cc3nccc(Oc4ccc(NC(=O)NC5CC5)cc4F)c3s2)nc1 [Compound 476] |
| < 0.05 µM | O=C(Nc1ccc(Oc2ccnc3cc(-c4ccc(CN5CC(C(=O)O)C5)cn4)sc23)c(F)c1)NC1CC1 [Compound 477, 1-((6-(7-(4-(3-cyclopropylureido)-2-fluorophenoxy)thieno[3,2-b]pyridin-2-yl)pyridin-3-yl)methyl)azetidine-3-carboxylic acid] |
| < 0.05 µM | COC(=O)C1CCN(Cc2ccc(-c3cc4nccc(Oc5ccc(NC(=O)NC6CC6)cc5F)c4s3)nc2)C1 (centres unmarked) [Compound 478, methyl 1-((6-(7-(4-(3-cyclopropylureido)-2-fluorophenoxy)thieno[3,2-b]pyridin-2-yl)pyridin-3-yl)methyl)pyrrolidine-3-carboxylate] |

The remaining lines, values behind:

| Compound | IC50 |
| --- | --- |
| CN1CCN(CCNC(=O)c2cc3nccc(Oc4ccc(NC(=O)NC5CC5)cc4F)c3s2)CC1 [Compound 440] | ≥ 0.25 µM |
| CN(C)[C@H]1CCN(C(=O)c2cc3nccc(Oc4ccc(NC(=O)NC5CC5)cc4F)c3s2)C1 [Compound 441] | < 0.05 µM |
| CN(C)C(=O)c1cc2nccc(Oc3ccc(NC(=O)NC4CC4)cc3F)c2s1 [Compound 442] | < 0.05 µM |
| CC(C)(C)C(=O)O[C@@H]1CCN(C(=O)c2cc3nccc(Oc4ccc(NC(=O)NC5CC5)cc4F)c3s2)C1 [Compound 443] | ≥ 0.25 µM |
| CNC(=O)c1cc2nccc(Oc3ccc(NC(=O)NC4CC4)cc3F)c2s1 [Compound 444] | < 0.05 µM |
| O=C(Nc1ccc(Oc2ccnc3cc(C(=O)N4CCCC4)sc23)c(F)c1)NC1CC1 [Compound 445] | < 0.05 µM |
| O=C(Nc1ccc(Oc2ccnc3cc(C(=O)N4CCCCC4)sc23)c(F)c1)NC1CC1 [Compound 447] | < 0.05 µM |
| CC(C)(C)C(=O)O[C@H]1CCN(C(=O)c2cc3nccc(Oc4ccc(NC(=O)NC5CC5)cc4F)c3s2)C1 [Compound 448] | 0.1 to 0.25 µM |
| COC(=O)[C@@H]1CCCN1C(=O)c1cc2nccc(Oc3ccc(NC(=O)NC4CC4)cc3F)c2s1 [Compound 449] | < 0.05 µM |
| O=C(Nc1ccc(Oc2ccnc3cc(C(=O)N4CCOCC4)sc23)c(F)c1)NC1CC1 [Compound 450] | < 0.05 µM |
| CC(C)(C)C(=O)O[C@@H]1CCCN(C(=O)c2cc3nccc(Oc4ccc(NC(=O)NC5CC5)cc4F)c3s2)C1 [Compound 451] | ≥ 0.25 µM |
| CC(=O)N[C@H]1CCN(C(=O)c2cc3nccc(Oc4ccc(NC(=O)NC5CC5)cc4F)c3s2)C1 [Compound 452] | < 0.05 µM |
| CC(=O)N[C@@H]1CCN(C(=O)c2cc3nccc(Oc4ccc(NC(=O)NC5CC5)cc4F)c3s2)C1 [Compound 453] | < 0.05 µM |
| CC(C)(C)C(=O)OC1CN(C(=O)c2cc3nccc(Oc4ccc(NC(=O)NC5CC5)cc4F)c3s2)C1 [Compound 454] | < 0.05 µM |
| CC(C)(C)C(=O)OC1CCN(C(=O)c2cc3nccc(Oc4ccc(NC(=O)NC5CC5)cc4F)c3s2)CC1 [Compound 455] | 0.1 to 0.25 µM |
| CCN(C(=O)OC(C)(C)C)[C@H]1CCN(C(=O)c2cc3nccc(Oc4ccc(NC(=O)NC5CC5)cc4F)c3s2)C1 [Compound 456] | < 0.05 µM |
| CCOC(=O)C1CCN(C(=O)c2cc3nccc(Oc4ccc(NC(=O)NC5CC5)cc4F)c3s2)CC1 [Compound 457] | 0.05 to 0.1 µM |
| CCOC(=O)C1CCCN(C(=O)c2cc3nccc(Oc4ccc(NC(=O)NC5CC5)cc4F)c3s2)C1 (centres unmarked) [Compound 458] | 0.05 to 0.1 µM |
| O=C(Nc1ccc(Oc2ccnc3cc(C(=O)N4CCC[C@@H](O)C4)sc23)c(F)c1)NC1CC1 [Compound 463, (R)-1-cyclopropyl-3-(3-fluoro-4-(2-(3-hydroxypiperidine-1-carbonyl)thieno-[3,2-b]pyridine-7-yloxy)phenyl)urea] | 0.1 to 0.25 µM |
| CC(=O)O[C@@H]1CCN(C(=O)c2cc3nccc(Oc4ccc(NC(=O)NC5CC5)cc4F)c3s2)C1 [Compound 467, (R)-1-(7-(4-(3-cyclopropylureido)-2-fluorophenoxy)thieno[3,2-b]pyridine-2-carbonyl)pyrrolidin-3-yl acetate] | < 0.05 µM |
| CC(=O)O[C@H]1CCN(C(=O)c2cc3nccc(Oc4ccc(NC(=O)NC5CC5)cc4F)c3s2)C1 [Compound 468, (S)-1-(7-(4-(3-cyclopropylureido)-2-fluorophenoxy)thieno[3,2-b]pyridine-2-carbonyl)pyrrolidin-3-yl acetate] | < 0.05 µM |
| CN(C)CCNC(=O)C1CCN(C(=O)c2cc3nccc(Oc4ccc(NC(=O)NC5CC5)cc4F)c3s2)CC1 [Compound 471, 1-(7-(4-(3-cyclopropylureido)-2-fluorophenoxy)thieno[3,2-b]pyridine-2-carbonyl)-N-(2-(dimethylamino)ethyl)piperidine-4-carboxamide] | 0.05 to 0.1 µM |
| CN1CCN(C(=O)C2CCN(C(=O)c3cc4nccc(Oc5ccc(NC(=O)NC6CC6)cc5F)c4s3)CC2)CC1 [Compound 472, 1-cyclopropyl-3-(3-fluoro-4-(2-(4-(4-methylpiperazine-l-carbonyl)piperidine-1-carbonyl)thieno[3,2-b]pyridin-7-yloxy)phenyl)urea] | 0.05 to 0.1 µM |
| CN1CCN(C(=O)C2CCCN(C(=O)c3cc4nccc(Oc5ccc(NC(=O)NC6CC6)cc5F)c4s3)C2)CC1 (centres unmarked) [Compound 473, 1-cyclopropyl-3-(3-fluoro-4-(2-(3-(4-methylpiperazine-1-carbonyl)piperidine-1-carbonyl)thieno[3,2-b]pyridin-7-yloxy)phenyl)urea] | < 0.05 µM |
